ChEMBL document CHEMBL4425165, “Discovery of Pyrazolo[1,5-a]pyrimidine TTK Inhibitors: CFI-402257 is a Potent, Selective, Bioavailable Anticancer Agent” (ACS Med Chem Lett, 2016)
Converted amounts (≈) assume the structure as drawn.

How the values were obtained:
[1] = Cmax in athymic CD-1 nude mouse at 10 mg/kg, po by LC-MS/MS analysis; format: ADME, organism-based; set-up: dose 10 mg/kg, route oral; conditions: in vivo
[2] = Clearance in Sprague-Dawley rat at 1 mg/kg, iv or 5 mg/kg, po by LC-MS/MS analysis; format: ADME, organism-based; conditions: in vivo
[3] = target: T1, Cytochrome P450 1A2 (Homo sapiens, UniProt P05177); experiment: Inhibition of CYP1A2 (unknown origin) preincubated for 10 mins followed by addition of CEC as substrate measured after 15 mins in presence of NADP by fluorescence analysis; format: ADME
T1 sequence (P05177 whole entry): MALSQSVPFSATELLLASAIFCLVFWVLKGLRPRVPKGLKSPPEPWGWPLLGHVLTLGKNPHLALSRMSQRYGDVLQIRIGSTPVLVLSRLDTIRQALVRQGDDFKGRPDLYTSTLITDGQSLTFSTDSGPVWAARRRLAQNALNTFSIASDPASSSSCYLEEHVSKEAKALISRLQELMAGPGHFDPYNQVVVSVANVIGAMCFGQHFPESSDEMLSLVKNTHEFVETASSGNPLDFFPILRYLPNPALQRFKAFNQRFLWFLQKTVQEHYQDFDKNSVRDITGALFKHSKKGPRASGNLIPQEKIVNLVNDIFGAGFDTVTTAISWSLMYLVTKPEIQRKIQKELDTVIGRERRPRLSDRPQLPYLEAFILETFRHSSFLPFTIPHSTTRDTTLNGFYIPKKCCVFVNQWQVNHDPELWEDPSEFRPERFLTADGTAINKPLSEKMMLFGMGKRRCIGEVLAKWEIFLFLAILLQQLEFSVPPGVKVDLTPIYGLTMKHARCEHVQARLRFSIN

[4] = Toxicity in po dosed athymic nude mouse; format: organism-based; conditions: in vivo
[5] = Bioavailability in beagle dog at 5 mg/kg by LC-MS/MS analysis; format: ADME, organism-based, Canis lupus familiaris; conditions: in vivo
[6] = Solubility of the compound at pH 7.4; format: physicochemical; conditions: buffer
[7] = system: HCT-116; experiment: Antitumor activity against human HCT116 cells xenografted in athymic nude mouse assessed as tumor growth inhibition measured on day 21 relative to vehicle-treated control; format: functional
[8] = system: MDA-MB-468; experiment: Growth inhibition of human MDA-MB-468 cells measured after 5 days by sulforhodamine B assay; format: functional; conditions: MDA-MB-468, 120 h
[9] = Bioavailability in Sprague-Dawley rat at 5 mg/kg by LC-MS/MS analysis; format: ADME, organism-based; conditions: in vivo
[10] = Clearance in beagle dog at 1 mg/kg, iv or 5 mg/kg, po by LC-MS/MS analysis; format: ADME, organism-based, Canis lupus familiaris; conditions: in vivo
[11] = Toxicity in po dosed athymic nude mouse xenografted with human HCT116 cells assessed as weight loss measured on day 21; format: organism-based; conditions: in vivo
[12] = target: Cytochrome P450 2C19 (Homo sapiens, UniProt P33261); experiment: Inhibition of CYP2C19 (unknown origin) preincubated for 10 mins followed by addition of MFC as substrate measured after 30 mins in presence of NADP by fluorescence analysis; format: ADME
[13] = Toxicity in po dosed athymic nude mouse xenografted with human HCT116 cells assessed as induction of overt adverse signs measured on day 21; format: organism-based; conditions: in vivo
[14] = system: OVCAR-3; experiment: Growth inhibition of human OVCAR3 cells measured after 5 days by sulforhodamine B assay; format: functional; conditions: OVCAR-3, 120 h
[15] = system: HCT-116; experiment: Growth inhibition of human HCT116 cells measured after 5 days by sulforhodamine B assay; format: functional; conditions: HCT-116, 120 h
[16] = AUC (0 to infinity) in beagle dog at 5 mg/kg, po by LC-MS/MS analysis; format: ADME, organism-based, Canis lupus familiaris; set-up: dose 5 mg/kg, route oral, time infinity; conditions: in vivo
[17] = system: HCT-116; experiment: Antitumor activity against human HCT116 cells xenografted in athymic nude mouse assessed as tumor growth inhibition at 6.5 mg/kg, po qd measured on day 21; format: functional; conditions: HCT-116, po, 504 h, read-out: TGI
[18] = AUC in athymic CD-1 nude mouse at 10 mg/kg, po by LC-MS/MS analysis; format: ADME, organism-based; conditions: in vivo
[19] = target: T2, Cytochrome P450 3A4 (Homo sapiens, UniProt P08684); experiment: Inhibition of CYP3A4 (unknown origin) preincubated for 10 mins followed by addition of BFC as substrate measured after 10 mins in presence of NADP by fluorescence analysis; format: ADME
[20] = target: Cytochrome P450 2D6 (Homo sapiens, UniProt P10635); experiment: Inhibition of CYP2D6 (unknown origin) preincubated for 10 mins followed by addition of AMMC as substrate measured after 30 mins in presence of NADP by fluorescence analysis; format: ADME
[21] = system: HCT-116; experiment: Antitumor activity against human HCT116 cells xenografted in athymic nude mouse assessed as tumor growth inhibition at 5.5 mg/kg, po qd measured on day 21; format: functional; conditions: HCT-116, po, 504 h, read-out: TGI
[22] = AUC (0 to infinity) in Sprague-Dawley rat at 5 mg/kg, po by LC-MS/MS analysis; format: ADME, organism-based; set-up: dose 5 mg/kg, time infinity, route oral; conditions: in vivo
[23] = Dissociation constant, pKa of the compound; format: physicochemical
[24] = target: T2, Cytochrome P450 3A4; experiment: Inhibition of CYP3A4 (unknown origin) preincubated for 10 mins followed by addition of DBF as substrate measured after 10 mins in presence of NADP by fluorescence analysis; format: ADME
[25] = system: HT-29; experiment: Antitumor activity against human HT-29 cells xenografted in athymic nude mouse assessed as tumor growth inhibition at 6.5 mg/kg, po qd measured on day 21; format: functional; conditions: HT-29, po, 504 h, read-out: TGI
[26] = Solubility of the compound at pH 2; format: physicochemical; conditions: buffer
[27] = target: Cytochrome P450 2C9 (Homo sapiens, UniProt P11712); experiment: Inhibition of CYP2C9 (unknown origin) preincubated for 10 mins followed by addition of MFC as substrate measured after 45 mins in presence of NADP by fluorescence analysis; format: ADME
[28] = target: T3, Dual specificity protein kinase TTK (Homo sapiens, UniProt P33981)
T3 sequence (P33981 whole entry): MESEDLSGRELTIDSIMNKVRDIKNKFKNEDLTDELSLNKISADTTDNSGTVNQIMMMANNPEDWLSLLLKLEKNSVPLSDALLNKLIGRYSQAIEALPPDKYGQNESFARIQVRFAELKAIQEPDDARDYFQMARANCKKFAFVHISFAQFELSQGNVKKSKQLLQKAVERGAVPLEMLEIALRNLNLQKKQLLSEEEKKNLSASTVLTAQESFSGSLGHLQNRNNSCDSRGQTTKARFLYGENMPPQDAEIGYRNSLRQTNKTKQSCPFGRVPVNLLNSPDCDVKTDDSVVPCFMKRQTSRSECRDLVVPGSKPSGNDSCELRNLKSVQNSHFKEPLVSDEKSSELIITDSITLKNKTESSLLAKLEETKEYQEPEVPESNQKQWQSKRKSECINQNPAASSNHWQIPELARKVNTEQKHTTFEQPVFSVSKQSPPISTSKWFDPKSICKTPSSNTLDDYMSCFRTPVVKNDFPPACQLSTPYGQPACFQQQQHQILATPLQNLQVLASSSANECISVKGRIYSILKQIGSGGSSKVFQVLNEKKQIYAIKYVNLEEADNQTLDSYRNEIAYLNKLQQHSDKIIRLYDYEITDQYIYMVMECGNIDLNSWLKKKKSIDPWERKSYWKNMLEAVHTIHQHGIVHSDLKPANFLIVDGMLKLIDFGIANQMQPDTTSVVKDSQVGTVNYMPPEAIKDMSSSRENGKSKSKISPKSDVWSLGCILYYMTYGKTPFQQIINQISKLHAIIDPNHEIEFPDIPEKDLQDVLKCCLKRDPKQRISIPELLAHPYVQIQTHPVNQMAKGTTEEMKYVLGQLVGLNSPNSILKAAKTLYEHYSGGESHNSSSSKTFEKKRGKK

[29] = Drug uptake in po dosed mouse plasma; format: ADME, organism-based; conditions: in vivo

T2 sequence (P08684 whole entry): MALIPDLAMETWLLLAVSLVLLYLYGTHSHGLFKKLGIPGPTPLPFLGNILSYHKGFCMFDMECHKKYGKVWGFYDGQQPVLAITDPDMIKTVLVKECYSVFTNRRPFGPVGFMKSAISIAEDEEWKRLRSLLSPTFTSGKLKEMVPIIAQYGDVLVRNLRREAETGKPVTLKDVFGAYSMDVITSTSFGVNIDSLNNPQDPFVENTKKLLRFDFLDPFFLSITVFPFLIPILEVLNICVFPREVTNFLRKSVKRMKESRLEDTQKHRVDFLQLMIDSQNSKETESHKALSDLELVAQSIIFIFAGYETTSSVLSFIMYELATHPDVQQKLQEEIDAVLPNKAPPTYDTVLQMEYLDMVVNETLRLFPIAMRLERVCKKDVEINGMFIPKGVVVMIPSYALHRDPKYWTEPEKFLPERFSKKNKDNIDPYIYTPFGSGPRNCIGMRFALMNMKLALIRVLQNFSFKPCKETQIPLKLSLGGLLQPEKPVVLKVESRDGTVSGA
Chain of Cytochrome P450 2C9 (P11712 whole entry): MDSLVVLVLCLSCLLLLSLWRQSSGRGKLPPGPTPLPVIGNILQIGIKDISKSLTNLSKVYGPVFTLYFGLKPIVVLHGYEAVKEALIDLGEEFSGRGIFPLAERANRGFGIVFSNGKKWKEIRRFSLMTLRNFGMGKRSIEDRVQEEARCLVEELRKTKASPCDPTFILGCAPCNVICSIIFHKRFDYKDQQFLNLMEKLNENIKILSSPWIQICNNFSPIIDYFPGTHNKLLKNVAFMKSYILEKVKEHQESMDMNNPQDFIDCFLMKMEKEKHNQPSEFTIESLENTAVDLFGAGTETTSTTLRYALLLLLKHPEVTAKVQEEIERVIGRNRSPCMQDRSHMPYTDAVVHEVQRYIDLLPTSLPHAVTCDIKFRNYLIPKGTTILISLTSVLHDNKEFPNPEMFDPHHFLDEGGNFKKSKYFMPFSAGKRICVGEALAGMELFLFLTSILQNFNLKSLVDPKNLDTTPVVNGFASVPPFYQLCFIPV
Chain of Cytochrome P450 2D6 (P10635 whole entry): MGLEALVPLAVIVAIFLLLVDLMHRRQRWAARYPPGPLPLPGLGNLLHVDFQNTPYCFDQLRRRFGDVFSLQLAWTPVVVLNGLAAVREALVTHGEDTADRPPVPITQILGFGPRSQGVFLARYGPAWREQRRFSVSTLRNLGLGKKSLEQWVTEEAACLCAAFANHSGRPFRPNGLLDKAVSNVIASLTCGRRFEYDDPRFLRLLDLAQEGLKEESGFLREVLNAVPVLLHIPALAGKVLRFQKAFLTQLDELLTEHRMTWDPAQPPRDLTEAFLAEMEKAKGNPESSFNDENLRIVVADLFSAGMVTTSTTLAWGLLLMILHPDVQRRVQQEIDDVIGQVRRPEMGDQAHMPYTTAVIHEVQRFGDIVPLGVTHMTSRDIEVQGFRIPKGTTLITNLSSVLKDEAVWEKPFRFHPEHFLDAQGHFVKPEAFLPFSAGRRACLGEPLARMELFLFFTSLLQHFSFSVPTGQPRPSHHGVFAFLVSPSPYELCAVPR
Chain of Cytochrome P450 2C19 (P33261 whole entry): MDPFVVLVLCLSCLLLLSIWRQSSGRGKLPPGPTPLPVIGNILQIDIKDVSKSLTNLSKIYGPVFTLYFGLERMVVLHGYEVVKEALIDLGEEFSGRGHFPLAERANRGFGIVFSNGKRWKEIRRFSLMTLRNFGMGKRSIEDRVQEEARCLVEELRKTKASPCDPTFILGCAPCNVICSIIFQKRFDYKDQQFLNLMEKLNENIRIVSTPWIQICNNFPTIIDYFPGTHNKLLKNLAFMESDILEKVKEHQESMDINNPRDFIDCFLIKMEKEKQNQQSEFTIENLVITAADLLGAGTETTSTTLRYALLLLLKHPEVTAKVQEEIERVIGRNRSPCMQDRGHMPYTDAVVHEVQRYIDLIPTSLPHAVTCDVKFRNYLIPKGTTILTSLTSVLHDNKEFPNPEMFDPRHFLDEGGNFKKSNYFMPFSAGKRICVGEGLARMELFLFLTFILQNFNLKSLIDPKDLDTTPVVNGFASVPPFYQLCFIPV

Structure (SMILES) | Cmax [1] [ng/mL] | clearance [2] [mL/min/kg] | MTD [4] [mg/kg] | bioavailability [5] [%] | solubility [6] [µg/mL] | GI50 [8] [nM] | bioavailability [9] [%] | clearance [10] [mL/min/kg] | GI50 [14] [nM] | GI50 [15] [nM] | AUC(0-inf) [16] [ng·h/mL] | inhibition in vivo at 6.5 mg/kg [17] [%] | AUC [18] [ng·h/mL] | IC50 [19] [nM] | AUC(0-inf) [22] [ng·h/mL] | pKa [23] | inhibition in vivo at 6.5 mg/kg [25] [%] | solubility [26] [µg/mL] | further results
Cc1cc(-c2cnn3c(NC[C@H]4C[C@@](C)(O)C4)cc(Oc4cccnc4)nc23)ccc1C(=O)NC1CC1 [LUVIXASERTIB] | 2500 | 14 | 6.5 | 114 | 3.3 (≈ 6.62 µM) | 2 | 53 | 4.9 | 4 | 2 | 25000 | 68 | 7500 | 510 | 3400 | 3.7 | 60 | 560 (≈ 1120 µM) | IC50 [3]: Not Active; TGI [7]: Dose-dependent effect; Activity [11]: < 10%; IC50 [12]: 8000 nM; Activity [13]: Non-Toxic; IC50 [20]: Not Active; inhibition in vivo at 5.5 mg/kg [21]: 68%; IC50 [24]: 14000 nM; IC50 [27]: 13000 nM
Cc1cc(-c2cnn3c(NCCN4CCOCC4)cc(Oc4cccc(F)c4)nc23)ccc1C(=O)NC1CC1 | 1200 | 34 | 6.5 | 77 | 1.5 (≈ 2.83 µM) | 20 | 77 | 29 | 260 | 1 | 2200 | 72 | 3600 | 780 | 1900 | 6.7 | 41 | 11000 (≈ 20700 µM) | IC50 [28]: 2.2 nM; Drug uptake [29]: Dose-dependent effect
